What was measured:
Tryptase beta-1 = Tryptase beta-1 (Homo sapiens, UniProt Q15661); test: Inhibitory activity against human mast cell tryptase beta
[1] = biological target: Voltage-gated inwardly rectifying potassium channel KCNH2 (Homo sapiens, UniProt Q12809); test: Inhibitory activity against human Potassium channel HERG
Cytochrome P450 2C9 = Cytochrome P450 2C9 (Homo sapiens, UniProt P11712); test: Inhibitory activity against cytochrome P450 determined using human liver microsome upon 15 min incubation with probes substrates Tolbutamide (2C9); assay type: ADME, microsomes
Chain of Cytochrome P450 2C9 (P11712 whole entry): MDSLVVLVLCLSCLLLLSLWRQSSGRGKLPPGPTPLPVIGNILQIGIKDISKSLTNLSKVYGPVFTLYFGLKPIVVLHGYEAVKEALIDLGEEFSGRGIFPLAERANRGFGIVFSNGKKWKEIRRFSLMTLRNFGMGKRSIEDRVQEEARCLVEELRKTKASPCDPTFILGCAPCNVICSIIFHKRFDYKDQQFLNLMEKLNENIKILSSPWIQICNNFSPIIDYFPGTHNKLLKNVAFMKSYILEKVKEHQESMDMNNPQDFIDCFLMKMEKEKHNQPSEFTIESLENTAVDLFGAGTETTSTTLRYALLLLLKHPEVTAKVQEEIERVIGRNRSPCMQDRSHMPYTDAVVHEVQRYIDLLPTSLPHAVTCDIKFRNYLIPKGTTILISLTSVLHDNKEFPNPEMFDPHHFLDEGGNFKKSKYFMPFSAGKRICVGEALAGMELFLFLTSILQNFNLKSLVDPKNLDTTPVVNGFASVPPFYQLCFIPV

Cytochrome P450 2C19 = Cytochrome P450 2C19 (Homo sapiens, UniProt P33261); test: Inhibitory activity against cytochrome P450 determined using human liver microsome upon 15 min incubation with probes substrates s-mephenytoin (2C19); assay type: ADME, microsomes
Chain of Cytochrome P450 2C19 (P33261 whole entry): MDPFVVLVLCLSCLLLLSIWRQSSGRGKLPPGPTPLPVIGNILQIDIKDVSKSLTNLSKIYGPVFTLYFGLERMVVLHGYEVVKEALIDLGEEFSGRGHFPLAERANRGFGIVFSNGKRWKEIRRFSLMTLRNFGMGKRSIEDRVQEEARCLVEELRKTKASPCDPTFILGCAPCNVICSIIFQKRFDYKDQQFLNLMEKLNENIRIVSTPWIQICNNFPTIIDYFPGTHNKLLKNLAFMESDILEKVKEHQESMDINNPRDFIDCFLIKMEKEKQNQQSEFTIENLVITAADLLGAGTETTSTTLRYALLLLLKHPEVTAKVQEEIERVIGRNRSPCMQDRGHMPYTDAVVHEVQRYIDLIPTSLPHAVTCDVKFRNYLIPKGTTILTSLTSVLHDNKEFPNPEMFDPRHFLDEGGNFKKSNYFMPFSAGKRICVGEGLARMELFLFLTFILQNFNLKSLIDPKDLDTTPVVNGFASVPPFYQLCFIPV

Chain of Tryptase beta-1 (Q15661 whole entry): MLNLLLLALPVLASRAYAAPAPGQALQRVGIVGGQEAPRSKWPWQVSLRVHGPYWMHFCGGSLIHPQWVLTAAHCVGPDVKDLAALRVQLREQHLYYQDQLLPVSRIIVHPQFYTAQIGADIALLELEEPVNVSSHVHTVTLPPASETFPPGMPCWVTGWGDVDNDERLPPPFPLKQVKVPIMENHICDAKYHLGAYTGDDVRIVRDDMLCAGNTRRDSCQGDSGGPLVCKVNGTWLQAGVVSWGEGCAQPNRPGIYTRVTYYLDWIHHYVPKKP
Chain of Voltage-gated inwardly rectifying potassium channel KCNH2 (Q12809 whole entry): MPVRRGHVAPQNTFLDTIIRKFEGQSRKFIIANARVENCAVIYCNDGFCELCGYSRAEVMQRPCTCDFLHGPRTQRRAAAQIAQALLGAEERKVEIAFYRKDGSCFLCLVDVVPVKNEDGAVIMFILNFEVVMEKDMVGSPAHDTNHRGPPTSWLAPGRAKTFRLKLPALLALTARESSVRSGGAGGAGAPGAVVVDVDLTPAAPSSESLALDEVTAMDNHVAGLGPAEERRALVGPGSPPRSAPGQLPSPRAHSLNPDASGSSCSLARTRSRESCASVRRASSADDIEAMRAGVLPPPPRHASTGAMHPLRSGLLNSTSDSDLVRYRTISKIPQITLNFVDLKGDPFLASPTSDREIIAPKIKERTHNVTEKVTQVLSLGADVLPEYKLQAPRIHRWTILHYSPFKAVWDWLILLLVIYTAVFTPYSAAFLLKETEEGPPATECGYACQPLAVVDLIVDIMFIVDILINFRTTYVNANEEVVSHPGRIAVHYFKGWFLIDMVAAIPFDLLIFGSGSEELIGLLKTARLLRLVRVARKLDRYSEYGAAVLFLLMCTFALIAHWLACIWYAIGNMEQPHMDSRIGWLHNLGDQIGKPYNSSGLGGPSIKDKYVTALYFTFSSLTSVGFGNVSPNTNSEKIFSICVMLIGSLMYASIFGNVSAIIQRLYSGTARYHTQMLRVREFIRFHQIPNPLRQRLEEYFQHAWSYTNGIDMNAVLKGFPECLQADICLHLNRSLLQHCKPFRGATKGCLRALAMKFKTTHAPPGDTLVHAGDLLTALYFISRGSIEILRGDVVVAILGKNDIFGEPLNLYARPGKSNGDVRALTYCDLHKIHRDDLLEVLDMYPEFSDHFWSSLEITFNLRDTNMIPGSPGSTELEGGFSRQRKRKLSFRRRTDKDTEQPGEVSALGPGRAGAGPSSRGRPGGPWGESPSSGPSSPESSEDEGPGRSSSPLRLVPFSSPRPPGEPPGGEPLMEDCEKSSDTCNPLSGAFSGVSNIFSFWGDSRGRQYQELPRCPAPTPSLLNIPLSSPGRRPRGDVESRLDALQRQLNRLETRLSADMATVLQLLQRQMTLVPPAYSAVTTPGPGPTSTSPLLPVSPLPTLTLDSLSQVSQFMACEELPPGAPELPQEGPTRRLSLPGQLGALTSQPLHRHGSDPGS

SMILES	Ki (Tryptase beta-1) [nM]	IC50 [1] [nM]	IC50 (Cytochrome P450 2C9) [nM]	IC50 (Cytochrome P450 2C19) [nM]
NCc1ccc(F)c(C2CCN(C(=O)c3cccc(-c4nc(-c5cccs5)no4)c3)CC2)c1	4.3	800	480	2190
NCc1cccc(C2CCN(C(=O)c3cc(C(N)=O)cc(-c4nc(-c5cccs5)no4)c3)CC2)c1	1.5	–	–	–
NCc1ccc(F)c(C2CCN(C(=O)c3cc(C(N)=O)cc(-c4nc(-c5cccs5)no4)c3)CC2)c1	1.3	–	–	–

Further lines, with some results ahead:

Ki (Tryptase beta-1) [nM]	SMILES	IC50 [1] [nM]	IC50 (Cytochrome P450 2C9) [nM]	IC50 (Cytochrome P450 2C19) [nM]
59	CCOC(=O)c1cc(C(=O)N2CCC(c3cc(CN)ccc3F)CC2)cc(-c2nc(-c3cccs3)no2)c1	–	–	–
88	NCc1ccc(F)c(C2CCN(C(=O)c3cc(C(=O)O)cc(-c4nc(-c5cccs5)no4)c3)CC2)c1	76800	> 50000	> 50000
